According to the NIST ThermoML archive (doi:10.1016/j.jct.2014.07.026):

Test: mn = molality of the nth substance listed, in mol/kg
Conditions: 100 kPa, Liquid; for mass density: Vibrating tube method; for speed of sound: Frequency=2 MHz, Linear variable-path acoustic interferometer

CC(C)C[C@H](N)C(=O)[O-].CCCCn1cc[n+](C)c1 [1-butyl-3-methylimidazolium L-leucinate] + O
Conditions | mass density [kg/m3] | speed of sound [m/s]
293.15 K, m1 = 0.03697 | 999.215 | –
293.15 K, m1 = 0.05641 | 999.729 | –
293.15 K, m1 = 0.07287 | 1000.17 | –
293.15 K, m1 = 0.09146 | 1000.67 | –
293.15 K, m1 = 0.1132 | 1001.23 | –
293.15 K, m1 = 0.1544 | 1002.32 | –
293.15 K, m1 = 0.1911 | 1003.25 | –
293.15 K, m1 = 0.2335 | 1004.32 | –
293.15 K, m1 = 0.2827 | 1005.52 | –
293.15 K, m1 = 0.3424 | 1007.01 | –
293.15 K, m1 = 0.3957 | 1008.25 | –
293.15 K, m1 = 0.4527 | 1009.6 | –
293.15 K, m1 = 0.5127 | 1010.96 | –
298.15 K, m1 = 0.03697 | 998.03 | –
298.15 K, m1 = 0.04773 | – | 1507.7
298.15 K, m1 = 0.05641 | 998.525 | –
298.15 K, m1 = 0.07287 | 998.954 | –
298.15 K, m1 = 0.09146 | 999.435 | –
298.15 K, m1 = 0.1038 | – | 1519.1
298.15 K, m1 = 0.1132 | 999.978 | –
298.15 K, m1 = 0.1495 | – | 1528.5
298.15 K, m1 = 0.1544 | 1001.01 | –
298.15 K, m1 = 0.1911 | 1001.9 | –
298.15 K, m1 = 0.1994 | – | 1538.3
298.15 K, m1 = 0.2335 | 1002.93 | –
298.15 K, m1 = 0.2447 | – | 1547.3
298.15 K, m1 = 0.2827 | 1004.13 | –
298.15 K, m1 = 0.2957 | – | 1557.1
298.15 K, m1 = 0.3424 | 1005.51 | –
298.15 K, m1 = 0.3491 | – | 1567.5
298.15 K, m1 = 0.3957 | 1006.7 | –
298.15 K, m1 = 0.4035 | – | 1577.8
298.15 K, m1 = 0.4527 | 1008.01 | –
298.15 K, m1 = 0.4605 | – | 1588.7
298.15 K, m1 = 0.5127 | 1009.37 | –
298.15 K, m1 = 0.5164 | – | 1599.4
303.15 K, m1 = 0.03697 | 996.605 | –
303.15 K, m1 = 0.05641 | 997.088 | –
303.15 K, m1 = 0.07287 | 997.496 | –
303.15 K, m1 = 0.09146 | 997.966 | –
303.15 K, m1 = 0.1132 | 998.492 | –
303.15 K, m1 = 0.1544 | 999.496 | –
303.15 K, m1 = 0.1911 | 1000.35 | –
303.15 K, m1 = 0.2335 | 1001.35 | –
303.15 K, m1 = 0.2827 | 1002.52 | –
303.15 K, m1 = 0.3424 | 1003.84 | –
303.15 K, m1 = 0.3957 | 1005.02 | –
303.15 K, m1 = 0.4527 | 1006.25 | –
303.15 K, m1 = 0.5127 | 1007.54 | –
308.15 K, m1 = 0.03562 | 994.921 | –
308.15 K, m1 = 0.05661 | 995.428 | –
308.15 K, m1 = 0.07558 | 995.879 | –
308.15 K, m1 = 0.0961 | 996.37 | –
308.15 K, m1 = 0.114 | 996.791 | –
308.15 K, m1 = 0.1577 | 997.799 | –
308.15 K, m1 = 0.1946 | 998.637 | –
308.15 K, m1 = 0.2469 | 999.798 | –
308.15 K, m1 = 0.2813 | 1000.57 | –
308.15 K, m1 = 0.345 | 1001.95 | –
308.15 K, m1 = 0.3992 | 1003.13 | –
308.15 K, m1 = 0.4555 | 1004.31 | –
308.15 K, m1 = 0.5127 | 1005.43 | –
313.15 K, m1 = 0.03562 | 993.087 | –
313.15 K, m1 = 0.05661 | 993.589 | –
313.15 K, m1 = 0.07558 | 994.031 | –
313.15 K, m1 = 0.0961 | 994.501 | –
313.15 K, m1 = 0.114 | 994.919 | –
313.15 K, m1 = 0.1577 | 995.899 | –
313.15 K, m1 = 0.1946 | 996.701 | –
313.15 K, m1 = 0.2469 | 997.848 | –
313.15 K, m1 = 0.2813 | 998.573 | –
313.15 K, m1 = 0.345 | 999.913 | –
313.15 K, m1 = 0.3992 | 1001.03 | –
313.15 K, m1 = 0.4555 | 1002.11 | –
313.15 K, m1 = 0.5127 | 1003.22 | –

CCCCn1cc[n+](C)c1.C[C@H](N)C(=O)[O-] [3-butyl-1-methyl-1H-imidazolium L-alaninate] + O
Conditions | mass density [kg/m3] | speed of sound [m/s]
293.15 K, m1 = 0.03078 | 999.145 | –
293.15 K, m1 = 0.04697 | 999.63 | –
293.15 K, m1 = 0.06646 | 1000.21 | –
293.15 K, m1 = 0.08363 | 1000.72 | –
293.15 K, m1 = 0.0978 | 1001.14 | –
293.15 K, m1 = 0.1393 | 1002.34 | –
293.15 K, m1 = 0.1674 | 1003.15 | –
293.15 K, m1 = 0.2011 | 1004.09 | –
293.15 K, m1 = 0.2513 | 1005.48 | –
293.15 K, m1 = 0.2946 | 1006.67 | –
293.15 K, m1 = 0.3312 | 1007.64 | –
293.15 K, m1 = 0.383 | 1009.05 | –
293.15 K, m1 = 0.4337 | 1010.33 | –
298.15 K, m1 = 0.03078 | 997.956 | –
298.15 K, m1 = 0.04697 | 998.423 | –
298.15 K, m1 = 0.06346 | – | 1507.5
298.15 K, m1 = 0.06646 | 998.985 | –
298.15 K, m1 = 0.08363 | 999.477 | –
298.15 K, m1 = 0.0978 | 999.884 | –
298.15 K, m1 = 0.1393 | 1001.05 | –
298.15 K, m1 = 0.1428 | – | 1519.5
298.15 K, m1 = 0.1674 | 1001.83 | –
298.15 K, m1 = 0.1848 | – | 1526.1
298.15 K, m1 = 0.2011 | 1002.75 | –
298.15 K, m1 = 0.2434 | – | 1534.3
298.15 K, m1 = 0.2513 | 1004.09 | –
298.15 K, m1 = 0.2946 | 1005.25 | –
298.15 K, m1 = 0.2968 | – | 1541.6
298.15 K, m1 = 0.3312 | 1006.21 | –
298.15 K, m1 = 0.3455 | – | 1549.5
298.15 K, m1 = 0.383 | 1007.55 | –
298.15 K, m1 = 0.3934 | – | 1555.4
298.15 K, m1 = 0.4337 | 1008.88 | –
298.15 K, m1 = 0.4399 | – | 1561.4
298.15 K, m1 = 0.4872 | – | 1567.8
298.15 K, m1 = 0.546 | – | 1576.5
303.15 K, m1 = 0.03078 | 996.541 | –
303.15 K, m1 = 0.04697 | 996.999 | –
303.15 K, m1 = 0.06646 | 997.554 | –
303.15 K, m1 = 0.08363 | 998.04 | –
303.15 K, m1 = 0.0978 | 998.438 | –
303.15 K, m1 = 0.1393 | 999.57 | –
303.15 K, m1 = 0.1674 | 1000.34 | –
303.15 K, m1 = 0.2011 | 1001.23 | –
303.15 K, m1 = 0.2513 | 1002.54 | –
303.15 K, m1 = 0.2946 | 1003.67 | –
303.15 K, m1 = 0.3312 | 1004.62 | –
303.15 K, m1 = 0.383 | 1005.95 | –
303.15 K, m1 = 0.4337 | 1007.21 | –
308.15 K, m1 = 0.03124 | 994.926 | –
308.15 K, m1 = 0.05075 | 995.469 | –
308.15 K, m1 = 0.06032 | 995.732 | –
308.15 K, m1 = 0.08315 | 996.374 | –
308.15 K, m1 = 0.09789 | 996.775 | –
308.15 K, m1 = 0.1399 | 997.892 | –
308.15 K, m1 = 0.181 | 998.999 | –
308.15 K, m1 = 0.2108 | 999.761 | –
308.15 K, m1 = 0.2555 | 1000.94 | –
308.15 K, m1 = 0.2996 | 1002.03 | –
308.15 K, m1 = 0.3385 | 1003.03 | –
308.15 K, m1 = 0.3814 | 1004.06 | –
308.15 K, m1 = 0.4337 | 1005.37 | –
313.15 K, m1 = 0.03124 | 993.094 | –
313.15 K, m1 = 0.05075 | 993.624 | –
313.15 K, m1 = 0.06032 | 993.886 | –
313.15 K, m1 = 0.08315 | 994.504 | –
313.15 K, m1 = 0.09789 | 994.894 | –
313.15 K, m1 = 0.1399 | 996.012 | –
313.15 K, m1 = 0.181 | 997.076 | –
313.15 K, m1 = 0.2108 | 997.849 | –
313.15 K, m1 = 0.2555 | 998.984 | –
313.15 K, m1 = 0.2996 | 1000.07 | –
313.15 K, m1 = 0.3385 | 1001.05 | –
313.15 K, m1 = 0.3814 | 1002.07 | –
313.15 K, m1 = 0.4337 | 1003.34 | –
